Patent publication US12704459B2, “Methods, compositions, and kits for assay signal amplification” (MESO SCALE TECHNOLOGIES, LLC., priority 2021, dated 2026)

Columns and labels:
[1] = tested on: anti-SULFO-TAG antibody clones; test: Competition assay: ligands SM, Bpy or A against TAG compound binding; design: species or system mouse; conditions: 2 μM of ligand
Protocol: FIGS. 20A-20I show the results of exemplary competitive binding assays between the TAG compounds shown in FIG. 18A and the SM, Bpy, or A ligands shown in FIG. 18A, with the anti-SULFO-TAG antibody clones described in Example 4. The graphs show the remaining ECL signal after anti-SULFO-TAG antibodies were exposed to 2 μM of each ligand, then varying concentrations of each of the TAG compounds. Lower ECL signal is indicative of stronger binding affinity to a particular ligand. The three panels in the right-most column show ECL signals from exposing the anti-SULFO-TAG antibody clones to 10 nM of the TAG compounds alone (without ligands).
To further verify the role of ligands in antibody recognition, the antibodies were coated on MSD® 96-well Small Spot Streptavidin plates and first exposed to 2 μM of ligands SM, Bpy, or A, then exposed to different concentrations of the TAG compounds as a competition assay.

[2] = ECL generation of free TAG compounds spiked into ECL read buffer; format: physicochemical; conditions: free TAG compound in ECL read buffer, 96-well bare carbon plates
Protocol: An epitope recognition study was performed on the eleven anti-SULFO-TAG antibody clones described in Example 4. To study the epitope recognition of these antibody clones, four organometallic Ru^2+ compounds (“TAG compounds”) with varying numbers of sulfomethyl-bipyridine (“SM”) or bipyridine (“Bpy”) ligands as shown in FIG. 18A were prepared. The SULFO-TAG is denoted as Ru^+2(SM)2A1, which includes an acid ligand (“A”) in one of the Bpy groups and is more similar in structure with Bpy than SM. ECL generation from each TAG compound was verified by spiking the TAG compounds into ECL read buffer, and the ECL signal from each free TAG compound was measured on 96-well bare carbon plates. […] The Ru(Bpy)3 ECL signal, when normalized for concentration, would be 248,576 ECL units, similar to the other TAG compounds.

Row | Molecule | ligand binding / competition with antibody binding to Ru^+2(SM)3 and SULFO-TAG [1] | ECL signal, normalized for concentration [2]
1 | sulfomethyl-bipyridine [SM] | strongest binding | 
2 | [Ru+2].c1ccc(-c2ccccn2)nc1.c1ccc(-c2ccccn2)nc1.c1ccc(-c2ccccn2)nc1 [Ru(Bpy)3] |  | 248,576 ECL units
3 | c1ccc(-c2ccccn2)nc1 [Bpy, bipyridine] | unable to significantly outcompete antibody binding | 
